Data: patent US20090221651A1, “CHEMICAL PRECONDITIONING AS A PREVENTATIVE OR TREATMENT FOR EXCITOTOXIC SYNAPTIC DAMAGE” (priority 2005, published 2009)
Values joined by “and” are separate entries in the source; they are usually repeats but may differ in a detail not shown here. Identical values can stand only once. “Also recorded” adds a separate entry of the source.

Assays:
Format in all cases: cell-based, rat
[1] = system: dissociated hippocampal cultures; assay: Dendritic beading in cultured neurons after depolarizing KCl pulses; settings: for dendritic beading after 1 s KCl pulses in cPAF-exposed cultures: CNQX 10 μM together with AP-5 50 μM
Method: (§1) Primary hippocampal cultures and dendrite imaging. Dissociated hippocampal cultures from embryonic (E18) rats were prepared as previously described (53), plated on coverslips coated with poly-D-lysine and mouse laminin (reagents from Sigma-Aldrich unless otherwise noted) in Neurobasal plus B-27 media (GIBCO). After one week, 53 mM NaCl was added (to match solutions for physiological experiments) and antioxidants were removed from the media. Experiments were repeated using cultures from multiple dissections. Rodents were housed and treated in compliance with University of Rochester Committee on Animal Resources and NIH policies, and New York State and federal statutes.
(§2) At 20-24 days in vitro (DIV) neurons were transfected with EYFP (Clontech) or mRFP-1 (kind gift of Roger Tsien) vectors driven by CMV promoter, in a 1:2 ratio with Lipofectamine 2000 (Invitrogen). Serial fluorescence images of individual, live neurons (23-30 DIV) before and after exposure to 130 nM cPAF (Biomol) and/or synaptic stimulation by KCl were captured. For 60-hour exposure experiments, a 10 mM stock solution of cPAF (in EtOH) or vehicle was diluted into culture media. Neuronal survival was measured by Hoechst nuclear staining and propidium iodide exclusion.
For acute KCl stimulation experiments, coverslips were perfused in a custom-made chamber (200 μl) with bath solution (in mM: NaCl 139.5, KCl 2.5, CaCl2 2, MgCl2 1, glucose 24, HEPES 5, glycine 0.01, pH 7.3) at […], and exposed cultures to vehicle or cPAF for 20-90 min prior to stimulation. KCl (90 mM) was locally applied over the entire dendritic arbor of EYFP- or mRFP-expressing neurons in three 1- or 5-s pulses (10 s apart) using an 8-channel drug delivery system (ALA Scientific Instruments). In some experiments BN52021 (Biomol) or CNQX and AP-5 were added.
(§3) Dendrite morphology. For in vitro experiments pre- and post-exposure images of the same cells were compared. A neuron was considered beaded if its dendrites developed any focal swellings during the experiments (10, 14), though multiple dendrites were typically involved. Changes in spine number were determined by counting spines on the same dendrites before and after treatment.
(§4) Statistics. Differences in frequencies of dendritic beading were analyzed by Chi square, and changes in dendritic spine number by paired t-test. EPSP slope data were pooled over 10-minute intervals and used two-tailed t-tests to compare between groups or time points. A 0.05 significance level was used for all tests.

[2] = system: CA1 pyramidal neurons; assay: Dendritic beading after high-frequency Schaffer collateral stimulation (HFS) in acute hippocampal slices; settings: for effect on HFS-induced dendritic beading in cPAF-exposed slices: BAPTA 5 mM in pipette, Ac-DEVD-CHO 10 μM intracellular, L-NAME 100 μM, diazoxide 30 μM bath 40 to 60 min prior to HFS; for rate of beading following HFS in cPAF-exposed neurons: 1 μM cPAF plus CV-3988 10 μM, BN52021 2 μM or L-NAME 100 μM
Method: (§5) Imaging and LTP in acute hippocampal slices. Brains were removed from 17-30 day-old male Sprague-Dawley rats anesthetized with ketamine (180 μg/g), submerged them in ice-cold solution (in mM: NaCl 125, KCl 5, NaH2PO4 1.25, NaHCO3 28, CaCl2 0.5, MgCl2 4, D-glucose 25, kynurenic acid 1, bubbled with 95% O2/5% CO2), and cut 250 μm coronal slices using a vibroslice. Slices recovered in artificial cerebrospinal fluid (aCSF, in mM: NaCl 125, KCl 2.5, NaH2PO4 1.25, NaHCO3 25, CaCl2 2, MgCl2 1, D-glucose 25, bubbled with 95% O2/5% CO2) for >90 min prior to experiments.
(§6) Slices were transferred to a custom-made recording chamber perfused (1 ml/min) with aCSF containing 1 μM cPAF or vehicle. Membrane potentials from CA1 pyramidal neurons were recorded via whole-cell patch clamp, using 4-6 MΩ electrodes (filled with, mM: KCl 20, potassium gluconate 130, EGTA 0.5, HEPES10, MgSO4 2, ATP 2.5, GTP 0.5, pH 7.3) and a Multiclamp 700A amplifier with pClamp 9 software (Axon Instruments). Afferents were stimulated by constant current pulses (200 μs) via a bipolar stimulating electrode 50-200 μm away in the stratum radiatum. 10 μM bicuculline were included in the aCSF to isolate EPSPs, and adjusted stimulating intensity to elicit EPSPs 30% of maximal. After >10 min of test pulses (every 15 s), […] a high-frequency stimulus (HFS; three 1 s, 100 Hz trains, 20 s apart, at test-pulse intensity), then resumed test pulses for ≧50 min. […] Rising EPSP slope was used instead of peak amplitude as an index of synaptic efficacy to, avoid complication by action potentials evoked by some EPSPs after HFS. Amplitude (maximal sustained depolarization) and duration (at >25% maximal amplitude) of depolarization during HFS were also quantified.
Fluorescent images of dendrites from recorded cells were collected before and after HFS, after allowing 30 μM Alexa Fluor 568 hydrazide (Molecular Probes) in the recording electrode to fill the cell for >20 min. Using an external shutter to limit light exposure, image frames were captured at multiple focal planes and combined optimally-focused portions of these frames to display a composite image.
as §3, §4

[3] = system: CA1 pyramidal neurons; assay: EPSP potentiation (LTP) after HFS in acute hippocampal slices, whole-cell patch clamp; settings: for effect on synaptic potentiation / LTP in cPAF-exposed slices: BAPTA 5 mM, Ac-DEVD-CHO 10 μM, diazoxide 30 μM, PAF-R antagonists
Method: as §5, §6, §4

[4] = system: dissociated hippocampal cultures; assay: 60-hour cPAF exposure of dissociated hippocampal cultures: dendritic beading, spine number, neuronal survival; settings: 130 nM cPAF, 60-hour exposure
Method: as §1, §2, §3, §4

[5] = system: CA1 pyramidal neurons; assay: Membrane potential and depolarization during HFS in hippocampal slices
Method: as §5
Slices were transferred to a custom-made recording chamber perfused (1 ml/min) with aCSF containing 1 μM cPAF or vehicle. Membrane potentials from CA1 pyramidal neurons were recorded via whole-cell patch clamp, using 4-6 MΩ electrodes (filled with, mM: KCl 20, potassium gluconate 130, EGTA 0.5, HEPES10, MgSO4 2, ATP 2.5, GTP 0.5, pH 7.3) and a Multiclamp 700A amplifier with pClamp 9 software (Axon Instruments). Afferents were stimulated by constant current pulses (200 μs) via a bipolar stimulating electrode 50-200 μm away in the stratum radiatum. 10 μM bicuculline were included in the aCSF to isolate EPSPs, and adjusted stimulating intensity to elicit EPSPs 30% of maximal. […] Amplitude (maximal sustained depolarization) and duration (at >25% maximal amplitude) of depolarization during HFS were also quantified.

[6] = system: hippocampal slices; assay: Rhodamine 123 fluorescence (mitochondrial depolarization) after HFS in hippocampal slices; settings: 1 μM cPAF
Method: The present experiments measure changes in mitochondrial membrane potential during and after HFS in hippocampal slices using the rhodamine 123, a cationic dye that distributes across the mitochondrial membrane in a voltage-sensitive manner. When loaded into hippocampal slices at a dose of 26 μM, rhodamine 123 accumulates in the mitochondria at high concentrations that causes its fluorescence to quench; if the mitochondria are subsequently depolarized, rhodamine 123 is released into the cytoplasm and its fluorescent signal increases. Mitochondrial hyperpolarization, conversely, drives more dye from the cytoplasm into the mitochondria, increasing quenching and reducing the signal. Reliability of this interpretation was confirmed by control experiments using FCCP and oligomycin to respectively depolarize and hyperpolarize the mitochondria.

[7] = 130 nM cPAF, BN52021 10 μM pre-treatment
[8] = cPAF-treated slices plus PAF-R antagonist
[9] = cPAF-exposed slices plus compound (BN52021 2 μM, CV-3988 10 μM, Ac-DEVD-CHO 10 μM, diazoxide 30 μM), 40 to 50 min

Compound: NC(CCCP(=O)(O)O)C(=O)O (stereo not shown) [AP-5]
- dendritic beading after 1 s KCl pulses in cPAF-exposed cultures [1, 7]: prevented

Compound: O=C(O)CN(CC(=O)O)c1ccccc1OCCOc1ccccc1N(CC(=O)O)CC(=O)O [BAPTA]
- effect on HFS-induced dendritic beading in cPAF-exposed slices [2]: prevented dendritic beading; also recorded: eliminated dendritic beading
- effect on synaptic potentiation / LTP in cPAF-exposed slices [3]: eliminated synaptic potentiation

Compound: CC1C(=O)OC2C(O)C34C5CC(C(C)(C)C)C36C(OC(=O)C6O)OC4(C(=O)O5)C12O (stereo not shown) [BN52021]
- dendritic beading after 1 s KCl pulses in cPAF-exposed cultures [1, 7]: no cells developed beading; also recorded: blocked the increase in vulnerability
- cells beaded after 5 s KCl pulses ([1]; cPAF-exposed, BN52021 10 μM pre-treatment): 86%
- rate of beading following HFS in cPAF-exposed neurons [2]: 10%
- cells with dendritic beading elicited by HFS [2, 8]: 1 of 10
- EPSP potentiation following HFS [3, 9]: 1.29±0.05 relative to baseline

Compound: N#Cc1cc2[nH]c(=O)c(=O)[nH]c2cc1[N+](=O)[O-] [CNQX]
- dendritic beading after 1 s KCl pulses in cPAF-exposed cultures [1, 7]: prevented

Compound: CCCCCCCCCCCCCCCCCCNC(=O)OCC(COP(=O)([O-])OCC[n+]1ccsc1)OC (stereo not shown) [CV-3988]
- rate of beading following HFS in cPAF-exposed neurons [2]: 14%
- cells with dendritic beading elicited by HFS [2, 8]: 1 of 7
- EPSP potentiation following HFS [3, 9]: 1.07±0.13 relative to baseline

Compound: COC(=O)[C@@H](N)CCCNC(=N)N[N+](=O)[O-] [L-NAME]
- rate of beading following HFS in cPAF-exposed neurons [2]: 57%
- effect on HFS-induced dendritic beading in cPAF-exposed slices [2]: no protection; also recorded: no effect

Compound: CCCCCCCCCCCCCCCCOC[C@H](COP(=O)([O-])OCC[N+](C)(C)C)OC(=O)NC [cPAF]
- cells beaded in response to three 1 s KCl pulses ([1]; 130 nM cPAF, acute 20 to 90 min exposure): 90%
- decrease in numbers of dendritic spines [4]: 45.1±5.0% and 45±5%
- neuronal survival by Hoechst and propidium iodide staining [4]: 80.2±4.3%
- neurons that developed dendritic beading ([4]; serially-imaged cells): 56%
- recorded neurons with dendritic beading following HFS ([2]; 1 μM cPAF for 20 to 60 minutes prior to recording): 57%
- delay to appearance of HFS-induced dendritic beading ([2]; cPAF-exposed cells): 15 to 35 min
- cells with dendritic beading elicited by HFS ([2]; cPAF-treated slices): 11 of 19
- baseline membrane potential ([5]; 1 μM cPAF for up to 7 hours): −63±3.6 mV
- duration of depolarization during HFS ([5]; cPAF-exposed neurons): 693 ± 296 ms
- increase in rhodamine 123 fluorescence compared to control slices [6]: four-fold larger; also recorded: four-fold greater
- peak increase in rhodamine 123 fluorescence above baseline following HFS ([6]; CA1 stratum radiatum, 55 s after start of HFS): 5.90±1.86%
- EPSP potentiation following HFS ([3]; 1 μM cPAF, cells that did not develop dendritic beading, 40 to 50 min): 1.60±0.26 relative to baseline
- EPSP potentiation following HFS ([3]; 1 μM cPAF, cells whose dendrites beaded, 40 to 50 min): 0.84±0.12 relative to baseline

Compound: Ac-DEVD-CHO
- effect on HFS-induced dendritic beading in cPAF-exposed slices [2]: prevented dendritic beading
- effect on synaptic potentiation / LTP in cPAF-exposed slices [3]: failed to rescue LTP; also recorded: failed to restore a lasting potentiation
- EPSP potentiation following HFS ([3]; cPAF-exposed slices plus Ac-DEVD-CHO 10 μM, 0 to 10 min): 1.97±0.28 relative to baseline
- EPSP potentiation following HFS [3, 9]: 1.22±0.19 relative to baseline
